{
  "source": "ChEMBL document CHEMBL5385882",
  "about": "“Rational design and appraisal of selective Cdc2-Like kinase 1 (Clk1) inhibitors as novel autophagy inducers for the treatment of acute liver injury (ALI)” (Eur J Med Chem, 2023)",
  "key": {"[1]": {"biological_target": "T1, Dual specificity protein kinase CLK1 (Homo sapiens, UniProt P49759)", "test": "Inhibition of human 130-end recombinant CLK1 assessed as remaining activity using ERMRPRKRQGSVR as substrate at 100 nM by [gamma-32P]ATP binding based scintillation counting based analysis relative to control"}, "[2]": {"biological_target": "T2, Dual specificity tyrosine-phosphorylation-regulated kinase 1A (Homo sapiens, UniProt Q13627)", "test": "Inhibition of human full length recombinant DYRK1A assessed as remaining activity using RRRFRPASPLRGPP as substrate at 100 nM by [gamma-32P]ATP binding based scintillation counting based analysis relative to control"}, "[3]": {"biological_target": "T1, Dual specificity protein kinase CLK1", "test": "Inhibition of human 130-end recombinant CLK1 assessed as remaining activity using ERMRPRKRQGSVR as substrate by [gamma-32P]ATP binding based scintillation counting based analysis"}, "[4]": {"biological_target": "T2, Dual specificity tyrosine-phosphorylation-regulated kinase 1A", "test": "Inhibition of human full length recombinant DYRK1A assessed as remaining activity using RRRFRPASPLRGPP as substrate by [gamma-32P]ATP binding based scintillation counting based analysis"}, "Homo sapiens": {"species_on_record": "Homo sapiens", "test": "Selectivity index, ratio of IC50 for inhibition of human full length recombinant DYRK1A to IC50 for inhibition of human 130-end recombinant CLK1"}, "[5]": {"test": "Metabolic stability in human liver microsomes assessed as half life at 10 uM incubated for 5 mins in the presence of NADPH-generating system by LC-MS/MS analysis", "type": "ADME, Microsome"}, "[6]": {"biological_target": "Dual specificity protein kinase CLK1 (Mus musculus) (UniProt P22518)", "sequence (P22518 whole entry, looked up)": "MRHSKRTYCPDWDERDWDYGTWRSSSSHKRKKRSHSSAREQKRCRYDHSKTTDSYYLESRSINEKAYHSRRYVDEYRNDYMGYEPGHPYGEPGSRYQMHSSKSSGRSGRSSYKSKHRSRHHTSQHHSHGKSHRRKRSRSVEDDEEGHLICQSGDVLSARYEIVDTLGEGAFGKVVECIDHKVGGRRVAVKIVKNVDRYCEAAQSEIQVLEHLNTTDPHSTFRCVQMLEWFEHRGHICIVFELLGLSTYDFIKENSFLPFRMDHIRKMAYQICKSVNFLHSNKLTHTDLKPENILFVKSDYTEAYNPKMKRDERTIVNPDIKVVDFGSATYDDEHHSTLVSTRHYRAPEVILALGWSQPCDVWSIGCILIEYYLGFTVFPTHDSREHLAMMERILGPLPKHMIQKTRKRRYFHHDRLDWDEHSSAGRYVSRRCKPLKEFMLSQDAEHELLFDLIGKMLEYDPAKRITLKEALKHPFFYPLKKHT", "test": "Inhibition of Clk1 in mouse BNL CL.2 cells assessed as redistribution of serine/arginine (SR) proteins from nucleoplasmic (active form) to nuclear speckles (storage form) incubated for 24 hrs by immunofluorescence assay", "type": "cell-based", "settings": "dose 1-10 µM"}, "[7]": {"biological_target": "T1, Dual specificity protein kinase CLK1", "test": "Binding affinity to Clk1 protein (unknown origin) assessed as inhibition of degradation in presence of 1:15 pronase to compound concentration"}, "HeLa [8]": {"test_system": "HeLa", "test": "Induction of autophagy in human HeLa cells assessed as increase in LC3II protein incubated for 24 hrs by Western blot analysis", "type": "functional, cell-based", "settings": "dose 0.2-10 µM"}, "HeLa [9]": {"test_system": "HeLa", "test": "Induction of autophagy in human HeLa cells assessed as ratio of LC3II protein to LC3I incubated for 24 hrs by Western blot analysis", "type": "functional, cell-based", "settings": "dose 0.2-10 nM"}, "HeLa [10]": {"test_system": "HeLa", "test": "Induction of autophagy in human HeLa cells assessed as increase in LC3II protein at 10 uM by Western blot analysis", "type": "functional, cell-based", "settings": "time 3-24 hrs, TDE = time-dependent effect"}, "HeLa [11]": {"test_system": "HeLa", "test": "Induction of autophagy in human HeLa cells assessed as ratio of LC3II protein to LC3I at 10 uM by Western blot analysis", "type": "functional, cell-based", "settings": "time 3-24 hrs, TDE = time-dependent effect"}, "HeLa [12]": {"test_system": "HeLa", "test": "Induction of autophagy in human HeLa cells assessed as degradation of SQSTM1/p62 at 10 uM incubated for 24 hrs by Western blot analysis", "type": "functional, cell-based"}, "HeLa [13]": {"test_system": "HeLa", "test": "Induction of autophagy in human HeLa cells infected with RFP-GFP-LC3 assessed as increased the number of yellow LC3 puncta at 10 uM after 24 hrs by confocal microscopy", "type": "functional, cell-based"}, "[14]": {"test": "Oral bioavailability in Balb/c mouse at 10 mg/kg measured upto24 hrs by LC/MS/MS analysis", "type": "ADME, organism-based", "settings": "in vivo, time 24 hrs"}, "[15]": {"test": "Cmax in Balb/c mouse at 10 mg/kg, iv measured upto24 hrs by LC/MS/MS analysis", "type": "ADME, organism-based", "set-up": "time 24 hrs, dose 10 mg/kg, route iv", "settings": "in vivo"}, "[16]": {"test": "Cmax in Balb/c mouse at 10 mg/kg, po measured upto24 hrs by LC/MS/MS analysis", "type": "ADME, organism-based", "set-up": "dose 10 mg/kg, time 24 hrs, route po", "settings": "in vivo"}, "[17]": {"test": "Cmax in Balb/c mouse at 10 mg/kg, ip measured upto24 hrs by LC/MS/MS analysis", "type": "ADME, organism-based", "set-up": "dose 10 mg/kg, time 24 hrs, route ip", "settings": "in vivo"}, "[18]": {"test": "Clearance in Balb/c mouse at 10 mg/kg, iv measured upto24 hrs by LC/MS/MS analysis", "type": "ADME, organism-based", "settings": "in vivo, time 24 hrs"}, "[19]": {"test": "Clearance in Balb/c mouse at 10 mg/kg, po measured upto24 hrs by LC/MS/MS analysis", "type": "ADME, organism-based", "settings": "in vivo, time 24 hrs"}, "[20]": {"test": "Clearance in Balb/c mouse at 10 mg/kg, ip measured upto24 hrs by LC/MS/MS analysis", "type": "ADME, organism-based", "settings": "in vivo, time 24 hrs"}, "[21]": {"test": "Half life in Balb/c mouse at 10 mg/kg, iv measured upto24 hrs by LC/MS/MS analysis", "type": "ADME, organism-based", "settings": "in vivo, time 24 hrs"}, "[22]": {"test": "Half life in Balb/c mouse at 10 mg/kg, po measured upto24 hrs by LC/MS/MS analysis", "type": "ADME, organism-based", "settings": "in vivo, time 24 hrs"}, "[23]": {"test": "Half life in Balb/c mouse at 10 mg/kg, ip measured upto24 hrs by LC/MS/MS analysis", "type": "ADME, organism-based", "settings": "in vivo, time 24 hrs"}, "[24]": {"test": "AUC (0 to t) in Balb/c mouse at 10 mg/kg, iv measured upto24 hrs by LC/MS/MS analysis", "type": "ADME, organism-based", "set-up": "time 24 hrs, dose 10 mg/kg, route iv", "settings": "in vivo"}, "[25]": {"test": "AUC (0 to t) in Balb/c mouse at 10 mg/kg, po measured upto24 hrs by LC/MS/MS analysis", "type": "ADME, organism-based", "set-up": "dose 10 mg/kg, time 24 hrs, route po", "settings": "in vivo"}, "[26]": {"test": "AUC (0 to t) in Balb/c mouse at 10 mg/kg, ip measured upto24 hrs by LC/MS/MS analysis", "type": "ADME, organism-based", "set-up": "time 24 hrs, dose 10 mg/kg, route ip", "settings": "in vivo"}, "Mus musculus [27]": {"test_system": "Mus musculus", "test": "Protection against APAP-induced acute liver injury in ip dosed C57BL/6 mouse model assessed as volume of hepatocytes measured after 6 hrs by H and E staining method", "type": "functional, organism-based", "settings": "dose 10-40 mg/kg"}, "Mus musculus [28]": {"test_system": "Mus musculus", "test": "Protection against APAP-induced acute liver injury in ip dosed C57BL/6 mouse model assessed as tiny vacuoles in hepatocyte cytoplasm measured after 6 hrs by H and E staining method", "type": "functional, organism-based", "settings": "dose 10-40 mg/kg"}, "Mus musculus [29]": {"test_system": "Mus musculus", "test": "Protection against APAP-induced acute liver injury in ip dosed C57BL/6 mouse model assessed as necrotic hepatocytes measured after 6 hrs by H and E staining method", "type": "functional, organism-based", "settings": "dose 10-40 mg/kg"}, "Mus musculus [30]": {"test_system": "Mus musculus", "test": "Protection against APAP-induced acute liver injury in ip dosed C57BL/6 mouse model assessed as decrease in body temperature measured after 6 hrs by H and E staining method", "type": "functional, organism-based", "settings": "dose 10-40 mg/kg"}, "Mus musculus [31]": {"test_system": "Mus musculus", "test": "Protection against APAP-induced acute liver injury in ip dosed C57BL/6 mouse model assessed as decrease in serum ALT level measured after 6 hrs", "type": "functional, organism-based", "settings": "dose 10-40 mg/kg"}, "Mus musculus [32]": {"test_system": "Mus musculus", "test": "Protection against APAP-induced acute liver injury in ip dosed C57BL/6 mouse model assessed as decrease in serum AST level measured after 6 hrs", "type": "functional, organism-based"}, "[33]": {"test": "Metabolic stability in human liver microsomes assessed as clearance at 10 uM incubated for 5 mins in the presence of NADPH-generating system by LC-MS/MS analysis", "type": "ADME, Microsome"}},
  "note": "Active and inactive are the calls of the source. No cut-off for these calls is given here.",
  "data": [
    {"smiles": "CN1CCN(c2ccc(C(=O)Nc3cnc4[nH]cc(-c5cncc(F)c5)c4c3)cc2)CC1", "values": [
      {"measurement": "Activity", "setting": "[1]", "result": 2, "unit": "%"},
      {"measurement": "Activity", "setting": "[2]", "result": 72, "unit": "%"},
      {"measurement": "IC50", "setting": "[3]", "result": 5, "unit": "nM"},
      {"measurement": "IC50", "setting": "[4]", "result": 1520, "unit": "nM"},
      {"measurement": "Selectivity Index", "setting": "Homo sapiens", "result": 304},
      {"measurement": "half-life at 10 µM", "setting": "[5]", "result": "> 2", "unit": "h"},
      {"measurement": "inhibition", "setting": "[6]", "result": "Dose-Dependent Effect"},
      {"measurement": "Activity", "setting": "[7]", "result": "Dose-Dependent Effect"},
      {"measurement": "Activity", "setting": "HeLa [8]", "result": "Dose-Dependent Effect"},
      {"measurement": "Activity", "setting": "HeLa [9]", "result": "Dose-Dependent Effect"},
      {"measurement": "Activity", "setting": "HeLa [10]", "result": "Tde"},
      {"measurement": "Activity", "setting": "HeLa [11]", "result": "Tde"},
      {"measurement": "Activity", "setting": "HeLa [12]", "result": "Active"},
      {"measurement": "Activity", "setting": "HeLa [13]", "result": "Active"},
      {"measurement": "bioavailability", "setting": "[14]", "result": 19.5, "unit": "%"},
      {"measurement": "Cmax", "setting": "[15]", "result": 13200, "unit": "ng/mL"},
      {"measurement": "Cmax", "setting": "[16]", "result": 1460, "unit": "ng/mL"},
      {"measurement": "Cmax", "setting": "[17]", "result": 4650, "unit": "ng/mL"},
      {"measurement": "clearance", "setting": "[18]", "result": 17.5, "unit": "mL/min/kg"},
      {"measurement": "CL/F", "setting": "[19]", "result": 91.8, "unit": "mL/min/kg"},
      {"measurement": "CL/F", "setting": "[20]", "result": 59.7, "unit": "mL/min/kg"},
      {"measurement": "half-life", "setting": "[21]", "result": 2.96, "unit": "h"},
      {"measurement": "half-life", "setting": "[22]", "result": 5.29, "unit": "h"},
      {"measurement": "half-life", "setting": "[23]", "result": 3.27, "unit": "h"},
      {"measurement": "AUC(0-t) at 24 h", "setting": "[24]", "result": 9520, "unit": "ng·h/mL"},
      {"measurement": "AUC(0-t) at 24 h", "setting": "[25]", "result": 1860, "unit": "ng·h/mL"},
      {"measurement": "AUC(0-t) at 24 h", "setting": "[26]", "result": 5010, "unit": "ng·h/mL"},
      {"measurement": "Activity", "setting": "Mus musculus [27]", "result": "Dose-Dependent Effect"},
      {"measurement": "Activity", "setting": "Mus musculus [28]", "result": "Dose-Dependent Effect"},
      {"measurement": "Activity", "setting": "Mus musculus [29]", "result": "Dose-Dependent Effect"},
      {"measurement": "Activity", "setting": "Mus musculus [30]", "result": "Dose-Dependent Effect"},
      {"measurement": "Activity", "setting": "Mus musculus [31]", "result": "Dose-Dependent Effect"},
      {"measurement": "Activity", "setting": "Mus musculus [32]", "result": "Dose-Dependent Effect"},
      {"measurement": "CLH", "setting": "[33]", "result": "< 12", "unit": "mL/min/g"}
    ]}
  ]
}
